Measurements: patent publication US20040249164A1, “Crystalline hydrates of nicotinic acid anilide and benzoyl anilide derivatives” (priority 2001, published 2004)

Key:
[1] = Physical properties of anhydrate and hydrate (Table 1); format: physicochemical
Method: 2-Chloro-N-(4′-chlorobiphenyl-2-yl)nicotinamide was obtained at the end of the synthesis as hot xylenic solution. Upon cooling slowly, virtually all of the active ingredient crystallized from xylene. After filtration, residual xylene was removed by drying in a vacuum drying oven, whereby the active ingredient was obtained in the form of the anhydrate. The physical properties are compiled in Table 1.
1 g of 2-chloro-N-(4′-chlorobiphenyl-2-yl)nicotinamide anhydrate was dissolved in 20 ml of THF at 40° C. and the solution was then poured into 20 ml of water. The material which had precipitated was filtered off with suction and dried at 40° C. in a drying oven.
The physical properties of the 2-chloro-N-(4′-chlorobiphenyl-2-yl)nicotinamide monohydrate thus repared are shown in Tabelle 1.

[2] = Particle size of the formulation on storage (Malvern Mastersizer); format: physicochemical; conditions: After eight milling passes, Dyno KDL mill
Method: 500 g of 2-chloro-N-(4′-chlorobiphenyl-2-yl)nicotinamide monohydrate were combined as described under A with adjuvants. After the mixture had been stirred briefly, it was pumped through a Dyno KDL mill (1.2 mm beads, milling space 1.2 l) at a rate of 2 l/h. The milling process was carried out without problems. No clogging of the mill or crystallization in the receiver was observed. After eight milling passes, a sufficiently fine particle size of 70% <2 μm (Malvern Mastersizer) was achieved, i.e. the particle diameter of 70% of the particles is <2 μm.
The data shown are the percentage of the particles which are smaller than 2 μm.

Row | Compound | Water content [1] [%] | particle size, share of particles <2 μm [2] [% <2 μm]
1 | O=C(Nc1ccccc1-c1ccc(Cl)cc1)c1cccnc1Cl [Anhydrate, 2-chloro-N-(4′-chlorobiphenyl-2-yl)nicotinamide] | <1 | –
2 | O.O=C(Nc1ccccc1-c1ccc(Cl)cc1)c1cccnc1Cl [Hydrate, 2-chloro-N-(4′-chlorobiphenyl-2-yl)nicotinamide monohydrate] | 5 | 70
